The test system of one assay is MRSA (ATCC 33591). Put plainly: MIC determination by broth microdilution vs. MRSA (ATCC 33591). The assay is classed as cell-based, Staphylococcus aureus. The settings on record: Staphylococcus aureus. On the procedure:
(§1) Using a sterile loop, 3 to 5 isolated colonies of bacteria of the same morphological appearance are selected from the overnight agar plate. The colonies are transferred into a conical flask containing 5 mL of liquid medium (i.e. Mueller-Hinton broth). The broth is incubated at 37° C. in a shaker at 220 rpm until it reaches a turbidity that is equal to the turbidity of a McFarland Standard 0.5 (correspond to 1×10^8 cfu/mL). This culture growth step will require 1-2 hours depending on the bacteria tested.
During this pause period, an antibacterial dilution is prepared. Therefore an antibacterial stock solution is diluted in Mueller-Hinton broth. The concentration of DMSO is kept at 5%. 100 μL of the antibacterial solution are dispensed into the first well of a row. 50 μL of medium containing 0.5% of DMSO are dispensed to the rest of the wells. A 2-fold serial dilution is achieved by transferring 50 μL from the first well (containing the highest concentration of antibacterial) into the second well, and continuing like this until the 10th well in the row. The final 50 μL are discarded so that every well has 50 μL of each antibacterial dilution.
The 11th well was used as the growth control well (medium with bacterial inoculums, no antibacterial) while the 12th well was the sterility control well (medium only).
The bacterial suspension prepared above is mixed thoroughly, and diluted by a factor of 1:100 in the sterile medium. Each well and the growth control well is inoculated with 50 μL of the bacterial suspension. […] To the sterility control well 50 μL of sterile medium are added in place of the bacterial suspension. 10 μL aliquot from the growth control well is removed immediately after inoculating the plate and pipetted it into a sterile Eppendorf tube holding 990 μL of sterile broth. It is mixed well by vortexing. This suspension is further diluted (1:10) by pipetting 100 μL into 900 μL of sterile broth and mixing it well. 100 μL of each of the two dilutions are plated onto two different antibacterial-free agar plates. A sterile cell spreader is used to spread the liquid. Then the plate is sealed with a transparent adhesive film. The microtiter plate and agar plates are incubated at 37° C. for 16-20 hours or until satisfactory growth is obtained. The colonies on the agar plate are counted the next day to verify that the right number of cfu was inoculated. The plate is agitated in the SpectraMax spectrophotometer for 90 s and the OD600 for all the wells in the plate is recorded.

The test system of another assay is MRSA ATCC-BAA-44. Put plainly: MIC, panel of MRSA strains: ATCC-BAA-44. The assay is classed as cell-based. As to conditions: Staphylococcus aureus; MRSA strain ATCC-BAA-44. On the procedure:
as §1
(§2) During this pause period, an antibacterial dilution is prepared. Therefore an antibacterial stock solution is diluted in Mueller-Hinton broth. The concentration of DMSO is kept at 5%. 100 μL of the antibacterial solution are dispensed into the first well of a row. 50 μL of medium containing 0.5% of DMSO are dispensed to the rest of the wells. […]
(§3) The bacterial suspension prepared above is mixed thoroughly, and diluted by a factor of 1:100 in the sterile medium. […] The colonies on the agar plate are counted the next day to verify that the right number of cfu was inoculated. The plate is agitated in the SpectraMax spectrophotometer for 90 s and the OD600 for all the wells in the plate is recorded. […]

The next assay deals with MRSA ATCC-1720. Briefly: MIC, panel of MRSA strains: ATCC-1720. The settings on record: Staphylococcus aureus; MRSA strain ATCC-1720. Format: cell-based. The method, then:
as §1, §2, §3

A further assay concerns MRSA ATCC-2094. Put plainly: MIC, panel of MRSA strains: ATCC-2094. The settings on record: Staphylococcus aureus; MRSA strain ATCC-2094. The assay is classed as cell-based. On the procedure: as §1, §2, §3
Another assay relates to MRSA ATCC-BAA-1680. Put plainly: MIC, panel of MRSA strains: ATCC-BAA-1680. The assay is classed as cell-based. As to conditions: Staphylococcus aureus; MRSA strain ATCC-BAA-1680. On the procedure: as §1, §2, §3
The subject of another assay is MRSA ATCC-BAA-1681. Briefly: MIC, panel of MRSA strains: ATCC-BAA-1681. Format: cell-based. As to conditions: Staphylococcus aureus; MRSA strain ATCC-BAA-1681. The method, then: as §1, §2, §3
The next assay concerns MRSA ATCC-700699. Put plainly: MIC, panel of MRSA strains: ATCC-700699. Format: cell-based. The settings on record: Staphylococcus aureus; MRSA strain ATCC-700699. The method, then:
as §1, §2, §3

≈ marks a conversion by molar mass, not a printed value. Where two headings read alike, the source gives them in different places.

A word on the MIC: it is the lowest concentration found to suppress growth.

Consider `N=C(N)NCCCCNC(=O)[C@@H](Cc1ccc(-c2ccccc2)cc1)NC(=O)[C@@H](CCCNC(=N)N)NC(=O)[C@H](N)Cc1ccc(-c2ccccc2)cc1` [Compound (A)], for which the minimum inhibitory concentration (MIC) was found to be 1.56 µM (≈ 1.14 µg/mL) with MRSA (ATCC 33591) (MRSA (ATCC 33591), read-out: MIC); 1.56 µM (≈ 1.15 µg/mL) in the assay with MRSA (ATCC 33591) (MRSA strain ATCC-33591, read-out: MIC values); 3.12 µM (≈ 2.29 µg/mL) in the assay with MRSA ATCC-BAA-44; 3.12 µM (≈ 2.29 µg/mL) in the assay with MRSA ATCC-1720; 3.12 µM (≈ 2.29 µg/mL) against MRSA ATCC-2094; 1.56 µM (≈ 1.15 µg/mL) in the assay with MRSA ATCC-BAA-1680. Moreover, the MIC against MRSA ATCC-BAA-1681 and with MRSA ATCC-700699 was 3.12 µM (≈ 2.29 µg/mL) each time.

For the origin of these results see US10787483B2, “Antimicrobial peptidomimetics” (Agency for Science, Technology and Research, priority 2014, dated 2020).
